Source: PubChem BioAssay (NCI)
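How tested: cells in 96-well plates exposed to compound for 48 hours at five concentrations. At the TGI there is no net growth.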

What was measured:
Test in all cases: NCI tumour cell line growth inhibition, 48 h
[1] = tested on: HOP-92 NSCLC
[2] = tested on: SF-295 CNS
[3] = tested on: UACC-257 melanoma
[4] = tested on: COLO 205 colon
[5] = tested on: HL-60(TB) leukemia
[6] = tested on: U251 CNS
[7] = tested on: RXF 393 renal
[8] = tested on: UO-31 renal
[9] = tested on: HCC-2998 colon
[10] = tested on: NCI-H23 lung
[11] = tested on: PC-3 prostate
[12] = tested on: MCF7 breast
[13] = tested on: OVCAR-5 ovarian
[14] = tested on: EKVX NSCLC
[15] = tested on: RPMI-8226 leukemia
[16] = tested on: OVCAR-4 ovarian
[17] = tested on: A498 renal
[18] = tested on: HOP-62 NSCLC
[19] = tested on: CCRF-CEM leukemia
[20] = tested on: MDA-N
[21] = tested on: LOX IMVI melanoma
[22] = tested on: SN12C renal
[23] = tested on: KM12 colon
[24] = tested on: NCI-H226 lung
[25] = tested on: MALME-3M melanoma
[26] = tested on: IGROV1 ovarian
[27] = tested on: NCI/ADR-RES ovarian
[28] = tested on: MDA-MB-435
[29] = tested on: BT-549 breast
[30] = tested on: SNB-19 CNS
[31] = tested on: 786-0 renal
[32] = tested on: HT29 colon
[33] = tested on: DU-145 prostate
[34] = tested on: UACC-62 melanoma
[35] = tested on: HS 578T breast
[36] = tested on: SK-MEL-28 melanoma
[37] = tested on: SF-268 CNS
[38] = tested on: ACHN renal
[39] = tested on: K-562 leukemia
[40] = tested on: SNB-75 CNS
[41] = tested on: NCI-H522 lung
[42] = tested on: SK-MEL-5 melanoma
[43] = tested on: OVCAR-8 ovarian
[44] = tested on: MOLT-4 leukemia
[45] = tested on: SW-620 colon
[46] = tested on: HCT-116 colon
[47] = tested on: A549 NSCLC
[48] = tested on: HCT-15 colon
[49] = tested on: TK-10 renal
[50] = tested on: NCI-H460 lung
[51] = tested on: M14 melanoma
[52] = tested on: T-47D breast
[53] = tested on: SK-OV-3 ovarian
[54] = tested on: SF-539 CNS
[55] = tested on: SK-MEL-2 melanoma
[56] = tested on: MDA-MB-231 breast
[57] = tested on: CAKI-1 renal
[58] = tested on: OVCAR-3 ovarian

**Q.** `COc1cc(/C=N/n2c(-c3ccccc3)nn(C(C)=O)c2=O)cc(OC)c1OC` was tested. Which TGI [1] did it give?
**A.** > 89.7 µM

**Q.** And the TGI [2]?
**A.** 26.9 µM

**Q.** And the TGI [3]?
**A.** > 39.3 µM

**Q.** What about the TGI [4] of the same compound?
**A.** 4.55 µM

**Q.** What about the TGI [5] of the same compound?
**A.** 9.68 µM

**Q.** What about the TGI [6] of the same compound?
**A.** > 44.6 µM

**Q.** What about the TGI [7] of the same compound?
**A.** > 88.4 µM

**Q.** What about the TGI [8] of the same compound?
**A.** 54.4 µM

**Q.** What about the TGI [9] of the same compound?
**A.** 16.3 µM

**Q.** And the TGI [10]?
**A.** > 49.4 µM

**Q.** And the TGI [11]?
**A.** > 81.8 µM

**Q.** What about the TGI [12] of the same compound?
**A.** > 37.9 µM

**Q.** And the TGI [13]?
**A.** > 92.6 µM

**Q.** What about the TGI [14] of the same compound?
**A.** 99.2 µM

**Q.** And the TGI [15]?
**A.** 9.59 µM

**Q.** And the TGI [16]?
**A.** > 100 µM

**Q.** What about the TGI [17] of the same compound?
**A.** 23.3 µM

**Q.** And the TGI [18]?
**A.** > 100 µM

**Q.** What about the TGI [19] of the same compound?
**A.** > 100 µM

**Q.** What about the TGI [20] of the same compound?
**A.** 3.83 µM

**Q.** What about the TGI [21] of the same compound?
**A.** > 100 µM

**Q.** And the TGI [22]?
**A.** > 100 µM

**Q.** And the TGI [23]?
**A.** > 59.5 µM

**Q.** And the TGI [24]?
**A.** > 100 µM

**Q.** And the TGI [25]?
**A.** > 46.6 µM

**Q.** What about the TGI [26] of the same compound?
**A.** > 100 µM

**Q.** And the TGI [27]?
**A.** > 42.6 µM

**Q.** And the TGI [28]?
**A.** 1.96 µM

**Q.** What about the TGI [29] of the same compound?
**A.** > 74.2 µM

**Q.** And the TGI [30]?
**A.** > 52.3 µM

**Q.** And the TGI [31]?
**A.** > 53.1 µM

**Q.** And the TGI [32]?
**A.** > 44.3 µM

**Q.** What about the TGI [33] of the same compound?
**A.** > 89.1 µM

**Q.** And the TGI [34]?
**A.** 31.4 µM

**Q.** And the TGI [35]?
**A.** > 26.9 µM

**Q.** What about the TGI [36] of the same compound?
**A.** > 80.6 µM

**Q.** And the TGI [37]?
**A.** > 100 µM

**Q.** What about the TGI [38] of the same compound?
**A.** > 64.6 µM

**Q.** And the TGI [39]?
**A.** > 100 µM

**Q.** What about the TGI [40] of the same compound?
**A.** 21.1 µM

**Q.** What about the TGI [41] of the same compound?
**A.** 8.56 µM

**Q.** What about the TGI [42] of the same compound?
**A.** 6.68 µM

**Q.** And the TGI [43]?
**A.** > 82.2 µM

**Q.** What about the TGI [44] of the same compound?
**A.** > 52.7 µM

**Q.** And the TGI [45]?
**A.** > 100 µM

**Q.** What about the TGI [46] of the same compound?
**A.** > 100 µM

**Q.** And the TGI [47]?
**A.** > 94.6 µM

**Q.** What about the TGI [48] of the same compound?
**A.** > 100 µM

**Q.** What about the TGI [49] of the same compound?
**A.** 31.8 µM

**Q.** What about the TGI [50] of the same compound?
**A.** > 39.2 µM

**Q.** What about the TGI [51] of the same compound?
**A.** > 58.9 µM

**Q.** And the TGI [52]?
**A.** > 100 µM

**Q.** And the TGI [53]?
**A.** > 39.9 µM

**Q.** What about the TGI [54] of the same compound?
**A.** 8.54 µM

**Q.** And the TGI [55]?
**A.** 18.4 µM

**Q.** And the TGI [56]?
**A.** 64.3 µM

**Q.** What about the TGI [57] of the same compound?
**A.** > 100 µM

**Q.** What does the source list for `CC(C)[C@H](NC(=O)[C@H](N)Cc1ccc(N(CCCl)CCCl)cc1)C(=O)O`?
**A.** TGI [1]: > 100 µM; TGI [2]: > 100 µM; TGI [3]: > 100 µM; TGI [4]: > 100 µM; TGI [5]: > 100 µM; TGI [6]: > 100 µM; TGI [7]: > 100 µM; TGI [8]: > 100 µM; TGI [9]: > 100 µM; TGI [58]: > 100 µM; TGI [10]: > 100 µM; TGI [11]: > 100 µM; TGI [12]: > 100 µM; TGI [13]: > 100 µM; TGI [14]: > 100 µM; TGI [15]: > 100 µM; TGI [16]: > 100 µM; TGI [17]: > 100 µM; TGI [18]: > 100 µM; TGI [19]: > 100 µM; TGI [20]: > 100 µM; TGI [21]: > 100 µM; TGI [22]: > 100 µM; TGI [23]: > 100 µM; TGI [24]: > 100 µM; TGI [25]: > 100 µM; TGI [26]: > 100 µM; TGI [27]: > 100 µM; TGI [28]: > 100 µM; TGI [29]: > 100 µM; TGI [30]: > 100 µM; TGI [31]: > 100 µM; TGI [32]: > 100 µM; TGI [33]: > 100 µM; TGI [34]: > 100 µM; TGI [35]: > 100 µM; TGI [36]: > 100 µM; TGI [37]: > 100 µM; TGI [38]: > 100 µM; TGI [39]: > 100 µM; TGI [40]: > 100 µM; TGI [41]: > 100 µM; TGI [42]: > 100 µM; TGI [43]: > 100 µM; TGI [44]: > 100 µM; TGI [45]: > 100 µM; TGI [46]: > 100 µM; TGI [47]: > 100 µM; TGI [48]: > 100 µM; TGI [49]: > 100 µM; TGI [50]: > 100 µM; TGI [51]: > 100 µM; TGI [52]: > 100 µM; TGI [53]: > 100 µM; TGI [55]: > 100 µM; TGI [56]: > 100 µM; TGI [57]: > 100 µM
